# Assay results: article PMC12604929, “Tumor-specific cytotoxicity of pyrazole-based chalcone derivatives in human oral squamous cell carcinoma cell lines” (Turkish Journal of Biology, 2025)
# Entries after “also recorded” stand apart in the source; their conditions may differ. Read-outs that look alike come from different tables or passages of the source.
# Legend:
# U251 cells = test system: U251 cells; set-up: method as in El-Awady et al., 2011; conditions: most sensitive of five cancer cell lines; ref El-Awady et al., 2011; cited from earlier work
# HeLa cells = test system: HeLa cells; set-up: method as in El-Awady et al., 2011; conditions: most resistant of five cancer cell lines; ref El-Awady et al., 2011; cited from earlier work
# [1] = MTT cytotoxicity assay, HPC; format: cell-based, human; conditions: female, human, human pulp cells (HPC), normal oral cells, average of three determinations
# Procedure: (§2) The viable cell number was determined in triplicate by the MTT method, following the approach adopted in previous studies ([Nagai et al., 2018]; [Shi et al., 2018] ). Briefly, the cells were incubated for 2 h with 0.2 mg/mL of MTT, and the formed formazan was dissolved with 0.1 mL of DMSO to determine the relative viable cell number at 560 nm.
# (§3) Cells were inoculated at 2×10^3 cells/0.1 ml in a 96-microwell plate. […] Cells were incubated further for 48 h and the relative viable cell number was then determined by the MTT method and expressed as the absorbance of the cell lysate at 560 nm, using a microplate reader (Infinite F50R; TECAN, Männedorf, Switzerland) [49, 50]. Control cells were treated with the same amounts of DMSO and the cell damage induced by DMSO was subtracted from that induced by test agents. The concentration of compound that reduced the viable cell number by 50% (CC50) was determined from the dose–response curve and the mean value of CC50 for each cell type was calculated from triplicate assays.
# (§4) All of these cells were cultured at 37°C in DMEM supplemented with 10% heat-inactivated fetal bovine serum, 100 units/ml, penicillin G and 100 µg/ml streptomycin sulfate under a humidified 5% CO2 atmosphere.
# [2] = test system: Ca9-22 cells (OSCC, gingival tissue); experiment: MTT cytotoxicity assay, Ca9-22; format: cell-based, human; conditions: for TS (C/A) tumor-selectivity index: CC50 HGF / CC50 Ca9-22 (both gingival); for CC50: OSCC, 48 h, MTT, average of three determinations
# Procedure: as §2, §3
# (§5) Human oral squamous cell carcinoma (OSCC) cell lines [Ca9-22 (derived from gingival tissue); and HSC-2, HSC-3, HSC-4 (derived from tongue)] were purchased from Riken Cell Bank (Tsukuba, Japan). All of these cells were cultured at 37°C in DMEM supplemented with 10% heat-inactivated fetal bovine serum, 100 units/ml, penicillin G and 100 µg/ml streptomycin sulfate under a humidified 5% CO2 atmosphere. Cell morphology was checked periodically under a light microscope (EVOS FL; Thermo Fisher Scientific, Waltham, MA, USA).
# [3] = test system: HSC-3 cells (OSCC, tongue); experiment: MTT cytotoxicity assay, HSC-3; format: cell-based, human; conditions: for CC50: OSCC, 48 h, MTT, average of three determinations
# Procedure: as §2, §3, §5
# HSC-2 cells = experiment: Cell-cycle analysis (propidium iodide, cell sorting); format: cell-based, human; conditions: HSC-2, 24 h; for subG1 cell population: control 1.9 %
# Procedure: Cell-cycle analysis was performed following the process described in the literature ([Kantoh et al., 2010]; [Nagai et al., 2018]; [Shi et al., 2018]), details of which are presented in a supplementary file. Briefly, cells (approximately 10^6 in number) were fixed with paraformaldehyde in PBS(−) and treated with RNase A. After staining with propidium iodide in the presence of 0.01% Nonidet-40 to prevent cell aggregation, the cells were filtered through Falcon cell strainers and then subjected to cell sorting, analyzed with Cell Sorter Software (version 2.1.2) (SONY Imaging Products and Solution Inc., Kanagawa, Japan).
# HSC-2 cells were incubated for 24 h with actinomycin D (Act.D) (positive control of apoptosis induction) or MS4, 7, or 8, or without treatment (control), and subjected to cell cycle analysis. […] D (1 μM) (p < 0.05) from 1.9 % to 12.5%. […] The cell cycle analysis was performed only with HSC-2 cells; therefore, experiments with other OSCC cell lines should be conducted to support the generalization of our findings.
# Treated and untreated cells (approximately 10^6 cells) were harvested, fixed with 1% paraformaldehyde in PBS without calcium and magnesium ions [PBS(−)]. Fixed cells were then washed twice with PBS(−) and treated for 30 min with 400 μl of 0.2 mg/ml RNase A (preheated for 10 min at 100 °C to inactivate DNase) to degrade RNA. Cells were then washed twice with PBS(−) and stained for 15 min with 0.01% propidium iodide (PI) in the presence of 0.01% NP-40 in PBS(−) to prevent cell aggregation. After filtering through Falcon® cell strainers ([…]) (Corning, NY, USA) to remove aggregated cells, PI-stained cells were subjected to cell sorting (SH800 Series; SONY Imaging Products and Solutions Inc., Kanagawa, Japan). Cell-cycle analysis was performed with Cell Sorter Software version 2.1.2. (SONY Imaging Products and Solution Inc.).
# [4] = MTT cytotoxicity, three normal oral cell types together (mean); format: cell-based, human; conditions: female, human; mean of HGF, HPLF, HPC; read-out: CC50 normal oral cells mean (D)
# Description: (§1) Estimation of CC50 values. […] The mean pCC50 values for normal cells and tumor cell lines were defined as N and T, respectively.
# [5] = MTT cytotoxicity assay, HGF; format: cell-based, human; conditions: human, human gingival fibroblasts (HGF), normal oral cells, average of three determinations
# Procedure: as §2, §3, §5
# [6] = MTT cytotoxicity assay, HPLF; format: cell-based, human; conditions: female, human, normal oral cells, average of three determinations
# Procedure: as §2, §3, §4
# [7] = test system: human OSCC cell lines (Ca9-22, HSC-2, HSC-3, HSC-4); experiment: MTT cytotoxicity, four OSCC cell lines together (mean, TS, PSE, type of growth inhibition); format: cell-based; conditions: for CC50: mean of Ca9-22, HSC-2, HSC-3, HSC-4, read-out: CC50 OSCC mean (B); for type of growth inhibition on the OSCC cell lines: from dose-response curves, Figure 4, cytostatic = without complete cytotoxicity, cytotoxic = complete cell death; for TS (D/B) tumor-selectivity index: mean CC50 normal cells / mean CC50 OSCC cell lines; for PSE (D/B^2)x100 potency-selectivity expression: three normal cell types vs four OSCC cell lines
# Procedure: TS was calculated using the following equation: TS=mean CC50 against three normal oral cell types/mean CC50 against four OSCC cell lines (HGF, HPLF, HPC vs. Ca9-22, HSC-2, HSC-3, HSC-4). Since both Ca9-22 and HGF cells were derived from the gingival tissue, the relative sensitivity of these cells was also compared (as: CC50 against HGF/ CC50 against Ca9-22).
# PSE was calculated by the following equation: PSE=mean CC50 against three normal oral cell types/(CC50 against four OSCC cell lines)2 × 100 (HGF, HPLF, HPC vs. Ca9-22, HSC-2, HSC-3, HSC-4); and as CC50 against HGF/(CC50 against Ca9-22)2 × 100 using the pair of cell types from the same tissue (gingiva) (see Table 1).
# as §1
# [8] = test system: HSC-4 cells (OSCC, tongue); experiment: MTT cytotoxicity assay, HSC-4; format: cell-based, human; conditions: average of three determinations
# Procedure: as §2, §3, §5
# [9] = test system: HSC-2 cells (OSCC, tongue); experiment: MTT cytotoxicity assay, HSC-2; conditions: for CC50: read-out: CC50 HSC-2; for relative cytotoxicity against HSC-2: from CC50 values 1.1, 2.8, 3.6 μM
# Procedure: as §2, §3, §5
# [10] = test system: pulp cells (HPC), normal oral cells; experiment: MTT cytotoxicity assay, HPC; format: cell-based, human; conditions: 48 h, average of three determinations
# Procedure: as §2, §3, §4
# [11] = test system: human normal oral cells (HGF, HPLF, HPC); experiment: MTT cytotoxicity, three normal oral cell types together (mean); format: cell-based; conditions: mean of HGF, read-out: CC50 normal oral cells mean (D)
# Description: as §1
# [12] = test system: gingival fibroblast (HGF), normal oral cells; experiment: MTT cytotoxicity assay, HGF; format: cell-based, human; conditions: 48 h, average of three determinations
# Procedure: as §2, §3, §5
# [13] = test system: periodontal ligament fibroblast (HPLF), normal oral cells; experiment: MTT cytotoxicity assay, HPLF; format: cell-based, human; conditions: 48 h, average of three determinations
# Procedure: as §2, §3, §4
smiles,measurement,setting,value
Cc1ccc(-c2cc(C(F)(F)F)nn2-c2ccc(S(N)(=O)=O)cc2)cc1 [celecoxib],IC50,U251 cells,11.7 µM
same,IC50,HeLa cells,37.2 µM
"COc1cc(OC)c(C(=O)/C=C/c2cn(-c3ccc(S(N)(=O)=O)cc3)nc2-c2ccccc2)cc1OC [MS7, (E)-4-(4-(3-Oxo-3-(2,4,5-trimethoxyphenyl)prop-1-en-1-yl)-3-phenyl-1H-pyrazol-1-yl)benzenesulfonamide]",CC50 at 48 h,[1],> 400 µM
same,TS (C/A) tumor-selectivity index,[2],>247.4
same,CC50,"[2]; Homo sapiens, Ca9-22",1.6 µM
same,times more cytotoxic towards Ca9-22 than 5-FU,[2]; relative to reference compound 5-FU,20.6 times
same,CC50,"[3]; Homo sapiens, HSC-3",3.3 µM
same,increase of cytotoxicity against HSC-3 compared to MS4,[3]; relative to unsubstituted phenyl derivative MS4,1.5–2 times
same,effect on cell cycle distribution,HSC-2 cells,increased the cell population in the S and G2/M phases
same,subG1 cell population,HSC-2 cells; 5.6 μM,1.0%
same,subG1 cell population,HSC-2 cells; 11.2 μM,1.3%
same,share of S-phase cells,"HSC-2 cells; control 15.6%, concentration not given",20.6%
same,share of G2+M phase cells,"HSC-2 cells; control 20.5%, concentration not given",35.0%
same,G1 phase cells,"HSC-2 cells; control 63.2%, concentration not given",44.5%
same,effect on cell cycle distribution,HSC-2 cells; listed as 7,induced G2+M arrest
same,CC50 at 48 h,[4],> 400 µM
same,CC50 at 48 h,[5],> 400 µM
same,CC50 at 48 h,[6],> 400 µM
same,CC50,[7]; Homo sapiens,2.7 µM
same,type of growth inhibition on the OSCC cell lines,[7],cytotoxic effects; also recorded: cytotoxic growth inhibition
same,TS (D/B) tumor-selectivity index,[7],>148.7
same,PSE (D/B^2)x100 potency-selectivity expression,[7],> 5531
same,CC50,"[8]; Homo sapiens, HSC-4, 48 h",3 µM
same,CC50,"[9]; Homo sapiens, HSC-2, 48 h",2.8 µM
same,relative cytotoxicity against HSC-2,[9],1.3 fold
"NS(=O)(=O)c1ccc(-n2cc(/C=C/C(=O)c3ccccc3)c(-c3ccccc3)n2)cc1 [MS4, (E)-4-(4-(3-Oxo-3-phenylprop-1-en-1-yl)-3-phenyl-1H-pyrazol-1 yl) benzenesulfonamide]",CC50,[10],> 400 µM
same,TS (C/A) tumor-selectivity index,[2],71.2
same,PSE (C/A^2)x100 potency-selectivity expression,[2]; HGF vs Ca9-22 (both gingival),> 1444
same,CC50,[2],4.9 µM
same,CC50,[3],5.2 µM
same,effect on cell cycle distribution,HSC-2 cells,increased the cell population in the S and G2/M phases; also recorded: only slightly induced such changes in cell cycle distribution; also recorded: induced G2+M arrest
same,subG1 cell population,HSC-2 cells; 2.2 μM,2.0%
same,CC50,[11],> 384 µM
same,CC50,[12],351 µM
same,CC50,[13],> 400 µM
same,type of growth inhibition on the OSCC cell lines,[7],cytostatic effects; also recorded: cytostatic growth inhibition
same,TS (D/B) tumor-selectivity index,[7],>103.7
same,CC50,[7],3.7 µM
same,PSE (D/B^2)x100 potency-selectivity expression,[7],> 2800
same,CC50,[8]; 48 h,3.5 µM
same,relative cytotoxicity against HSC-2,[9],3.3 fold
same,CC50,"[9]; OSCC, 48 h, MTT, average of three determinations",1.1 µM
